Data taken from PMC5365251, “Biophysical assay for tethered signaling reactions reveals tether-controlled activity for the phosphatase SHP-1” (Science Advances, 2017).

How the values were obtained:
[1] = tested on: PEG28-ITIM; assay: SPR of SHP-1 injected over immobilised PEG28-ITIM: tethered/solution catalysis and reach (MPDPDE fit); format: biochemical, mouse; details: for L (reach parameter), SH2 variants / allosteric activation (in words), SH2 variants: SHP-1 variants over PEG28-ITIM; for L (reach parameter), SH2 variants: average fit Fig. 6B: WT n = 15, N-SH2 mutant n = 3, C-SH2 mutant n = 9
Procedure: (§1) A construct expressing murine SHP-1 with an N-terminal 6× His tag was provided by M. H. Brown. Mutation of the SH2 domains was performed using a quick-change strategy. The mutations introduced were R30K and R33E for the N-terminal SH2 domain mutant and R136K for the C-terminal SH2 domain mutant previously shown to result in loss of binding ([6]). All peptides were ordered from PeptideSynthetics and were certified to be >95% pure. Peptides sequences were derived from the membrane-proximal ITIM sequence of mouse LAIR-1 receptor.
(§2) Experiments were performed on a Biacore 3000 instrument (GE Healthcare Life Sciences). All experiments were performed at 10°C and with a buffer flow rate of 10 μl/min. The buffer used was Hepes-buffered saline (HBS-EP; GE Healthcare Life Sciences), which contained 10 mM Hepes (pH 7.4), 150 mM NaCl, 3 mM EDTA, and 0.005% Surfactant P20.
(§3) A CM5 sensorchip was coupled with streptavidin to near saturation (typically between 4000 and 7000 RU) using the amine coupling kit (GE Healthcare Life Sciences) as described previously ([42]). After streptavidin was coupled, biotinylated peptides were injected to give the indicated concentrations in experimental flow cells, and excess biotin-binding sites were blocked with biotin in HBS-EP. The molar ratio of peptide to streptavidin was kept below 1:1 to ensure that peptide immobilization was random and not clustered on the tetravalent streptavidin molecules. Reference flow cells were treated with buffer and then blocked with biotin; pilot experiments using unphosphorylated control peptides in reference flow cells were indistinguishable from buffer-treated reference flow cells when injected with SHP-1. The chip surface was then conditioned with 5 × 5-min injections of HBS-EP. SHP-1 protein in HBS-EP with 1 mM dithiothreitol was then injected over reference and experimental flow cells in series for 5 min at the indicated concentrations. All SPR data were converted from the reference-subtracted data (in resonance units) to fraction bound by dividing the resonance units by the theoretical maximum resonance units expected if the experimental flow cell was saturated with bound SHP-1.
To determine the concentration of peptide in the assays, we first needed a conversion factor between the resonance units and the mass of peptide at the chip surface. We determined this conversion factor by injecting four concentrations of SHP-1 over a control flow cell on a CM5 chip and plotting the mass of SHP-1 injected against the raw resonance unit change. We repeated this on seven flow cells across four sensor chips to get an average slope of 149 ± 15 RU per g/liter (±SEM). This constant, together with the molecular weight of the peptide, was used to convert between the resonance units of peptides immobilized and the molar concentration at the chip surface. For example, 48.5 RU of PEG28-ITIM (molecular weight, 3221) was immobilized to obtain [peptide] = 97.1 μM (Fig. 2A).
From the MPDPDE model–simulated SPR traces, one would predict that the kcat*(solution) (fig. S4, G and H) and L (fig. S4F) are likely to be very sensitive to small systematic errors in the SPR trace at longer time scales. Nonspecific binding and baseline drift are two well-known sources of such systemic errors that can produce artifacts at long time scales (see fig. S6A for examples). To exclude data affected by these artifacts, we propose a simple quality control check that greatly improves the accuracy of estimating L, kcat*(tethered) , and kcat*(solution) . As a measure of the signal-to-noise ratio at long time points, we took the resonance units 20 s after the injection was completed (noise) and divided it by the resonance units 20 s before the injection finished (signal). […] Data that had evidence of significant artifact were excluded from the study based on this criterion (red data points in fig. S6B). […]

[2] = tested on: PEG28-ITIM; assay: SPR of SHP-1 injected over immobilised PEG28-ITIM: binding constants (MPDPDE fit); set-up: species or system mouse; details: SHP-1 variants over PEG28-ITIM, compared with wild-type
Procedure: as §1, §2, §3
To determine the concentration of peptide in the assays, we first needed a conversion factor between the resonance units and the mass of peptide at the chip surface. We determined this conversion factor by injecting four concentrations of SHP-1 over a control flow cell on a CM5 chip and plotting the mass of SHP-1 injected against the raw resonance unit change. We repeated this on seven flow cells across four sensor chips to get an average slope of 149 ± 15 RU per g/liter (±SEM). […]

[3] = target: T1, SHP-1 (Mus musculus, UniProt P29351); assay: SPR of SHP-1 injected over ITIM peptides: SHP-1 binding to the peptides; set-up: species or system murine; details: SHP-1 over peptides with shorter PEG linkers, compared with PEG28-ITIM; Fig. 5B
T1 construct: 6xHis (N); made in house; host or cells: Escherichia coli BL21-CodonPlus (DE3)-RIPL
Procedure: as §1, §2
A CM5 sensorchip was coupled with streptavidin to near saturation (typically between 4000 and 7000 RU) using the amine coupling kit (GE Healthcare Life Sciences) as described previously ([42]). After streptavidin was coupled, biotinylated peptides were injected to give the indicated concentrations in experimental flow cells, and excess biotin-binding sites were blocked with biotin in HBS-EP. […]

[4] = target: T1, SHP-1; assay: SPR of SHP-1 injected over ITIM peptides with different PEG linker lengths: reach and tethered catalysis (MPDPDE fit); format: biochemical, murine; details: for kcat*(tethered) versus tether length: SHP-1 over peptides with shorter PEG linkers, compared with PEG28-ITIM, Fig. 5B; for L (reach parameter) versus tether length: SHP-1 over peptides, average fit, PEG28 n = 15, PEG0 n = 2, 10°C, HBS-EP pH 7.4
Procedure: as §1, §2, §3
The five fitting parameters (p1, p2, p3, p4, and p5) are related to the five biophysical/biochemical constants as follows: p1 = kon [SHP-1], p2 = koff, p3=kcat*(tethered)× [peptide], p4=kcat*(tethered)/L^3 , and p5=kcat*(solution)× [SHP-1].
The MPDPDE model was fit to the experimental data using lsqcurvefit in Matlab (Mathworks). Specifically, the value of nB from the MPDPDE model was fit to the experimental SPR data that were normalized to maximum binding. Each fit was repeated multiple times with different initial guesses for the five fitting parameters to make certain that the best fit was achieved (global convergence). […]

T1 sequence (P29351 whole entry): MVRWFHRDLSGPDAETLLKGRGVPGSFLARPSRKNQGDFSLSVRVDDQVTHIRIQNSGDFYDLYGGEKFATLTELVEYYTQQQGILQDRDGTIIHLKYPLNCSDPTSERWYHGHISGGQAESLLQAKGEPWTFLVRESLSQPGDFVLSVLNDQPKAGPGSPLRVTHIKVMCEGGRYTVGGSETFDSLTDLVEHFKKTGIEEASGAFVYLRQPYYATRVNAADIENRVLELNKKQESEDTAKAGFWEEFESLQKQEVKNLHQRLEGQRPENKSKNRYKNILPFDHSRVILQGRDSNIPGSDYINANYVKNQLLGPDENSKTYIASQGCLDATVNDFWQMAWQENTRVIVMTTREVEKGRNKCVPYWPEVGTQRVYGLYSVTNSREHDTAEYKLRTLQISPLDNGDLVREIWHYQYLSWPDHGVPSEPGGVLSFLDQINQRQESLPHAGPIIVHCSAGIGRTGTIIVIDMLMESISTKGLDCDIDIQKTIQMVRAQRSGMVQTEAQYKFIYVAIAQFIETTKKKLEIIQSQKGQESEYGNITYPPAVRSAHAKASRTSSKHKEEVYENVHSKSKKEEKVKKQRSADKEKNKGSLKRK

| Substance | L (reach parameter), SH2 variants [1] | allosteric activation (in words), SH2 variants ([1]; Fig. 6B) | kon versus tether length [3] | kcat*(tethered) versus tether length [4] | L (reach parameter) versus tether length [4] | other results |
| --- | --- | --- | --- | --- | --- | --- |
| C-terminal mutant: SHP-1 with R136K mutation in the C-terminal SH2 domain | 23.9 nm | allosteric activation is observed in both cases |  |  |  | binding to ITIM peptide (in words), SH2 variants [2]: weak effect on binding |
| Biotin-(PEG)3-DLQEVTY*IQLDHH [PEG3-ITIM] |  |  | decrease | decrease |  |  |
| Biotin-(PEG)28-DLQEVTY*IQLDHH [PEG28-ITIM] |  |  |  |  | 23 nm |  |
| N-terminal mutant: SHP-1 with R30K and R33E mutations in the N-terminal SH2 domain | 16.5 nm | still exhibited allosteric activation |  |  |  | kcat*(tethered) over kcat*(solution), SH2 mutant ([1]; N-SH2 mutant SHP-1 over PEG28-ITIM, n = 3): 10 fold; allosteric activation (in words), SH2 variants ([1]; Fig. 6B, listed as N-terminal SH2 (N-SH2) mutant SHP-1): allosteric activation is observed in both cases; reach (in words), SH2 variants ([1]; binding via C-terminal compared to N-terminal SH2 domain, PEG28-ITIM, Fig. 6B): reduced reach; binding to ITIM peptide (in words), SH2 variants ([2]; listed as Mutation of the N-terminal SH2 domain): drastically reduced binding; binding to ITIM peptide (in words), SH2 variants ([2]; listed as N-terminal SH2 (N-SH2) mutant SHP-1): weak binding |
| Biotin-GDLQEVTY*IQLDHH [PEG0-ITIM] |  |  | decrease | decrease | 17 nm |  |
